Data taken from patent US20250066370A1, “BICYCLIC TRIAZINE DERIVATIVES FOR THE TREATMENT OF CANCER” (DEUTSCHES KREBSFORSCHUNGSZENTRUM, priority 2022, published 2025).
pIC50: −log10 of the molar value.

These compounds were tested on BRCA1 mRNA expression in MDA-MB-231 cells (assay: qRT-PCR assay: inhibition of BRCA1 mRNA expression in MDA-MB-231 cells). Details: Homo sapiens, 24 h exposure, BRCA1 normalised to GAPDH, median, read-out: RTqPCR-MDA-MB-231, IC50 [mol/l], BRCA1 (median).
Format: cell-based
Method: 3. qRT-PCR Assay: BRCA1, ATR, MCL1 in MDA-MB-231, CAL-120
Tissue cultured human MDA-MB-231 human breast cancer cells were plated in 500 microL per well at 200,000 cells/well in a 24 well microtiter plate. After 24 h, the cells were exposed continuously for 24 h to test substances (substances were added with Tecan HP D300 Dispenser). RNA was prepared using Qiagen RNeasy MiniKit (#74106), RNA was quantified using a NanoDrop Equipment, and 600 nano grams of RNA was converted to cDNA using a SuperScript VILO kit (Thermofisher #11755050) followed by qPCR amplification. BRCA1 and ATR gene expression was measured by RT-qPCR and normalised to GAPDH housekeeping gene expression. qPCR primer sets have been purchased from Thermo Fisher Scientific/Applied Biosystems: BRCA1, #Hs 01556193; ATR. #Hs 00992123: GAPDH. #Hs 03929097.

SMILES	pIC50
FC(F)(F)Oc1ccc(-c2cnc(CNc3nc(N4CCOCC4)nn4c(C(F)(F)F)cnc34)[nH]2)cc1 [Example 8, 2-(morpholin-4-yl)-N-({5-[4-(trifluoromethoxy)phenyl]-1H-imidazol-2-yl}methyl)-7-(trifluoromethyl)imidazo[2,1-f][1,2,4]triazin-4-amine]	7.42
FC(F)(F)c1ccc(-c2cnc(CNc3nc(N4CCOCC4)nc4c(C(F)(F)F)cnn34)[nH]2)cc1 [Example 9, 2-(morpholin-4-yl)-8-(trifluoromethyl)-N-({5-[4-(trifluoromethyl)phenyl]-1H-imidazol-2-yl}methyl)pyrazolo[1,5-a][1,3,5]triazin-4-amine]	6.99
COc1ccc(-c2nnc(CNc3nc(N4CCOCC4)nn4c(C(F)(F)F)cnc34)[nH]2)cn1 [Example 18, N-{[5-(6-methoxypyridin-3-yl)-4H-1,2,4-triazol-3-yl]methyl}-2-(morpholin-4-yl)-7-(trifluoromethyl)imidazo[2,1-f][1,2,4]triazin-4-amine]	7.15
FC(F)(F)c1ccc(-c2cnc(CNc3nc(N4CCOCC4)nc4c(C(F)(F)F)cnn34)[nH]2)cn1 [Example 24, 2-(morpholin-4-yl)-8-(trifluoromethyl)-N-({5-[6-(trifluoromethyl)pyridin-3-yl]-1H-imidazol-2-yl}methyl)pyrazolo[1,5-a][1,3,5]triazin-4-amine]	7.53

Each compound was assayed against CDK2/CyclinE (Homo sapiens (Human), UniProt P24941) (assay: CDK2/CycE kinase assay (TR-FRET)). Details: 2 mM ATP (high ATP); median; read-out: CDK2/CyclinE, 2 mM ATP (high ATP), IC50 - [mol/l] (median).
Format: biochemical
Excerpt: CDK2/CycE-inhibitory activity of compounds of the present invention was quantified employing the CDK2/CycE TR-FRET assay as described in the following paragraphs.
Recombinant fusion proteins of GST and human CDK2 and of GST and human CycE, expressed in insect cells (Sf9) and purified by Glutathion-Sepharose affinity chromatography, were purchased from ProQinase GmbH (Freiburg, Germany). As substrate for the kinase reaction biotinylated peptide biotin-Ttds-YISPLKSPYKISEG (C-terminus in amid form) was used which can be purchased e.g. form the company JERINI peptide technologies (Berlin, Germany).
For the assay 50 nanoL of a 100 fold concentrated solution of the test compound in DMSO was pipetted into a black low volume 384 well microtiter plate or a black 1536 well microtiter plate (both Greiner Bio-One, Frickenhausen, Germany), 2 microL of a solution of CDK2/CycE in aqueous assay buffer [50 millimol/L Tris/HCl PH 8.0, 10 millimol/L MgCl2, 1.0 millimol/L dithiothreitol, 0.1 millimol/L sodium ortho-vanadate, 0.01% (v/v) Nonidet-P40 (Sigma)] were added and the mixture was incubated for 15 min at 22° C. to allow pre-binding of the test compounds to the enzyme before the start of the kinase reaction. Then the kinase reaction was started by the addition of 3 microL of a solution of adenosine-tri-phosphate (ATP, 3.33 millimol/L=>final conc. in the 5 microL assay volume is 2 millimol/L) and substrate (1.25 micromol/L=>final conc. in the 5 microL assay volume is 0.75 micromol/L) in assay buffer and the resulting mixture was incubated for a reaction time of 25 min at 22° C. The concentration of CDK2/CycE was adjusted depending of the activity of the enzyme lot and was chosen appropriate to have the assay in the linear range, typical concentrations were in the range of 10 ng/ml. The reaction was stopped by the addition of 3 microL of a solution of TR-FRET detection reagents (0.333 micromol/L streptavidine-XL665 [Cisbio Bioassays, Codolet, France] and 1.67 nanomol/L anti-RB (pSer807/pSer811)-antibody from BD Pharmingen [#558389] and 2 nanomol/L LANCE EU-W1024 labeled anti-mouse IgG antibody [Perkin-Elmer, product no. AD0077, as an alternative a Terbium-cryptate-labeled anti-mouse IgG antibody from Cisbio Bioassays can be used]) in an aqueous EDTA-solution (167 millimol/L EDTA, 0.2% (w/v) bovine serum albumin in 100 millimol/L HEPES pH 7.5).
The resulting mixture was incubated 1 h at 22° C. to allow the formation of complex between the phosphorylated biotinylated peptide and the detection reagents. Subsequently the amount of phosphorylated substrate was evaluated by measurement of the resonance energy transfer from the Eu-chelate to the streptavidine-XL. Therefore, the fluorescence emissions at 620 nm and 665 nm after excitation at 350 nm was measured in a TR-FRET reader, e.g. a Pherastar (BMG Labtechnologies, Offenburg, Germany) or a Viewlux (Perkin-Elmer). The ratio of the emissions at 665 nm and at […] was taken as the measure for the amount of phosphorylated substrate. The data were normalised (enzyme reaction without inhibitor=0% inhibition, all other assay components but no enzyme=100% inhibition).

pIC50	SMILES
< 4.70	FC(F)(F)Oc1ccc(-c2cnc(CNc3nc(N4CCOCC4)nn4c(C(F)(F)F)cnc34)[nH]2)cc1 [Example 8, 2-(morpholin-4-yl)-N-({5-[4-(trifluoromethoxy)phenyl]-1H-imidazol-2-yl}methyl)-7-(trifluoromethyl)imidazo[2,1-f][1,2,4]triazin-4-amine]
< 4.70	FC(F)(F)c1ccc(-c2cnc(CNc3nc(N4CCOCC4)nn4c(C(F)(F)F)cnc34)[nH]2)cc1 [Example 7, 2-(morpholin-4-yl)-7-(trifluoromethyl)-N-({5-[4-(trifluoromethyl)phenyl]-1H-imidazol-2-yl}methyl)imidazo[2,1-f][1,2,4]triazin-4-amine]
< 4.70	FC(F)(F)c1ccc(-c2cnc(CNc3nc(N4CCOCC4)nc4c(C(F)(F)F)cnn34)[nH]2)cc1 [Example 9, 2-(morpholin-4-yl)-8-(trifluoromethyl)-N-({5-[4-(trifluoromethyl)phenyl]-1H-imidazol-2-yl}methyl)pyrazolo[1,5-a][1,3,5]triazin-4-amine]
5.51	COc1ccc(-c2nnc(CNc3nc(N4CCOCC4)nc4c(C(F)(F)F)cnn34)[nH]2)cn1 [Example 15, N-{[5-(6-methoxypyridin-3-yl)-4H-1,2,4-triazol-3-yl]methyl}-2-(morpholin-4-yl)-8-(trifluoromethyl)pyrazolo[1,5-a][1,3,5]triazin-4-amine]
< 4.70	FC(F)(F)c1ccc(-c2nnc(CNc3nc(N4CCOCC4)nn4c(C(F)(F)F)cnc34)[nH]2)cc1 [Example 11, 2-(morpholin-4-yl)-7-(trifluoromethyl)-N-({5-[4-(trifluoromethyl)phenyl]-4H-1,2,4-triazol-3-yl}methyl)imidazo[2,1-f][1,2,4]triazin-4-amine]
5.10	FC(F)(F)c1ccc(-c2cnc(CNc3nc(N4CCOCC4)nc4c(Br)cnn34)[nH]2)cc1 [Example 3, 8-bromo-2-(morpholin-4-yl)-N-({5-[4-(trifluoromethyl)phenyl]-1H-imidazol-2-yl}methyl)pyrazolo[1,5-a][1,3,5]triazin-4-amine]
< 4.70	FC(F)(F)Oc1ccc(-c2nnc(CNc3nc(N4CCOCC4)nn4c(C(F)(F)F)cnc34)[nH]2)cc1 [Example 14, 2-(morpholin-4-yl)-N-({5-[4-(trifluoromethoxy)phenyl]-4H-1,2,4-triazol-3-yl}methyl)-7-(trifluoromethyl)imidazo[2,1-f][1,2,4]triazin-4-amine]
< 4.70	FC(F)(F)c1ccc(-c2nnc(CNc3nc(N4CCOCC4)nc4c(C(F)(F)F)cnn34)[nH]2)cc1 [Example 6, 2-(morpholin-4-yl)-8-(trifluoromethyl)-N-({5-[4-(trifluoromethyl)phenyl]-4H-1,2,4-triazol-3-yl}methyl)pyrazolo[1,5-a][1,3,5]triazin-4-amine]
5.51	Cc1ccc(-c2nnc(CNc3nc(N4CCOCC4)nc4c(C(F)(F)F)cnn34)[nH]2)cn1 [Example 22, N-{[5-(6-methylpyridin-3-yl)-4H-1,2,4-triazol-3-yl]methyl}-2-(morpholin-4-yl)-8-(trifluoromethyl)pyrazolo[1,5-a][1,3,5]triazin-4-amine]
